Source: the supplement of paper PMC13380429

How the values were obtained:
Details in all cases: 72 h
Calu-3 [1] = experiment: cell viability relative to DMSO; higher = less toxic
HepG2 [2] = experiment: as above
U2OS [3] = experiment: as above
Vero E6 [4] = experiment: as above
Calu-3 [5] = experiment: relative viability EC50 (midpoint between 100% and the lowest measured viability); higher = less toxic
HepG2 [6] = experiment: as above
U2OS [7] = experiment: as above
Vero E6 [8] = experiment: as above
Calu-3 [9] = experiment: drug sensitivity score (DSS) for viability; higher = more toxic; extreme values may be limits of the assay
HepG2 [10] = experiment: as above
U2OS [11] = experiment: as above
Vero E6 [12] = experiment: as above
Caco-2 [13] = experiment: cell viability relative to DMSO; higher = less toxic
Caco-2 [14] = experiment: drug sensitivity score (DSS) for viability; higher = more toxic; extreme values may be limits of the assay

CC(C)c1cc2c(cc1S(=O)(=O)O)[C@@]1(C)CCC[C@@](C)(C(=O)O)[C@@H]1CC2 [ecabet]
cell viability (Calu-3 [1]; 1 nM): 109%
cell viability (Calu-3 [1]; 10 nM): 107%
cell viability (Calu-3 [1]; 100 nM): 112%
cell viability (Calu-3 [1]; 1000 nM): 110%
cell viability (Calu-3 [1]; 10000 nM): 99.5%
cell viability (HepG2 [2]; 1 nM): 105%
cell viability (HepG2 [2]; 10 nM): 110%
cell viability (HepG2 [2]; 100 nM): 93.8%
cell viability (HepG2 [2]; 1000 nM): 112%
cell viability (HepG2 [2]; 10000 nM): 104%
cell viability (U2OS [3]; 1 nM): 96.7%
cell viability (U2OS [3]; 10 nM): 93.7%
cell viability (U2OS [3]; 100 nM): 99.1%
cell viability (U2OS [3]; 1000 nM): 95%
cell viability (U2OS [3]; 10000 nM): 103%
cell viability (Vero E6 [4]; 1 nM): 96.4%
cell viability (Vero E6 [4]; 10 nM): 96.1%
cell viability (Vero E6 [4]; 100 nM): 96.9%
cell viability (Vero E6 [4]; 1000 nM): 96.9%
cell viability (Vero E6 [4]; 10000 nM): 107%
relative viability EC50 (Calu-3 [5]): > 10 µM
relative viability EC50 (HepG2 [6]): > 10 µM
relative viability EC50 (U2OS [7]): > 10 µM
relative viability EC50 (Vero E6 [8]): > 10 µM
drug sensitivity score (Calu-3 [9]): 0
drug sensitivity score (HepG2 [10]): 0
drug sensitivity score (U2OS [11]): 0
drug sensitivity score (Vero E6 [12]): 0

C#Cc1cccc(Nc2ncnc3cc(OCCOC)c(OCCOC)cc23)c1 [erlotinib]
cell viability (Caco-2 [13]; 1 nM): 105%
cell viability (Caco-2 [13]; 10 nM): 92.5%
cell viability (Caco-2 [13]; 100 nM): 98.2%
cell viability (Caco-2 [13]; 1000 nM): 79.7%
cell viability (Caco-2 [13]; 10000 nM): 54.2%
cell viability (Calu-3 [1]; 1 nM): 107%
cell viability (Calu-3 [1]; 10 nM): 109%
cell viability (Calu-3 [1]; 100 nM): 86.2%
cell viability (Calu-3 [1]; 1000 nM): 52%
cell viability (Calu-3 [1]; 10000 nM): 30.1%
cell viability (HepG2 [2]; 1 nM): 108%
cell viability (HepG2 [2]; 10 nM): 122%
cell viability (HepG2 [2]; 100 nM): 104%
cell viability (HepG2 [2]; 1000 nM): 97.8%
cell viability (HepG2 [2]; 10000 nM): 58.2%
cell viability (U2OS [3]; 1 nM): 96.7%
cell viability (U2OS [3]; 10 nM): 96.4%
cell viability (U2OS [3]; 100 nM): 94.2%
cell viability (U2OS [3]; 1000 nM): 93.5%
cell viability (U2OS [3]; 10000 nM): 82.9%
cell viability (Vero E6 [4]; 1 nM): 111%
cell viability (Vero E6 [4]; 10 nM): 104%
cell viability (Vero E6 [4]; 100 nM): 92%
cell viability (Vero E6 [4]; 1000 nM): 73.4%
cell viability (Vero E6 [4]; 10000 nM): 26.8%
relative viability EC50 (Calu-3 [5]): 0.453 µM
relative viability EC50 (U2OS [7]): > 10 µM
relative viability EC50 (Vero E6 [8]): 1.36 µM
drug sensitivity score (Caco-2 [14]): 4.7
drug sensitivity score (Calu-3 [9]): 10.6
drug sensitivity score (HepG2 [10]): 2.4
drug sensitivity score (U2OS [11]): 0.4
drug sensitivity score (Vero E6 [12]): 7.1

C[C@]12CC[C@@H]3c4ccc(OC(=O)c5ccccc5)cc4CC[C@H]3[C@@H]1CC[C@@H]2O [estradiol-benzoate]
cell viability (Calu-3 [1]; 1 nM): 101%
cell viability (Calu-3 [1]; 10 nM): 96.4%
cell viability (Calu-3 [1]; 100 nM): 98.6%
cell viability (Calu-3 [1]; 1000 nM): 94.3%
cell viability (Calu-3 [1]; 10000 nM): 88.6%
cell viability (HepG2 [2]; 1 nM): 104%
cell viability (HepG2 [2]; 10 nM): 118%
cell viability (HepG2 [2]; 100 nM): 103%
cell viability (HepG2 [2]; 1000 nM): 105%
cell viability (HepG2 [2]; 10000 nM): 97.8%
cell viability (U2OS [3]; 1 nM): 108%
cell viability (U2OS [3]; 10 nM): 105%
cell viability (U2OS [3]; 100 nM): 106%
cell viability (U2OS [3]; 1000 nM): 103%
cell viability (U2OS [3]; 10000 nM): 99.8%
relative viability EC50 (Calu-3 [5]): > 10 µM
relative viability EC50 (HepG2 [6]): > 10 µM
relative viability EC50 (U2OS [7]): > 10 µM
drug sensitivity score (Calu-3 [9]): 0
drug sensitivity score (HepG2 [10]): 0
drug sensitivity score (U2OS [11]): 0

N=C(N)N [guanidine]
cell viability (HepG2 [2]; 1 nM): 101%
cell viability (HepG2 [2]; 10 nM): 117%
cell viability (HepG2 [2]; 100 nM): 101%
cell viability (HepG2 [2]; 1000 nM): 96.2%
cell viability (HepG2 [2]; 10000 nM): 105%
cell viability (U2OS [3]; 1 nM): 105%
cell viability (U2OS [3]; 10 nM): 106%
cell viability (U2OS [3]; 100 nM): 105%
cell viability (U2OS [3]; 1000 nM): 99.9%
cell viability (U2OS [3]; 10000 nM): 108%
cell viability (Vero E6 [4]; 1 nM): 76.8%
cell viability (Vero E6 [4]; 10 nM): 106%
cell viability (Vero E6 [4]; 100 nM): 82.2%
cell viability (Vero E6 [4]; 1000 nM): 110%
cell viability (Vero E6 [4]; 10000 nM): 69.3%
relative viability EC50 (HepG2 [6]): > 10 µM
relative viability EC50 (U2OS [7]): > 10 µM
drug sensitivity score (HepG2 [10]): 0
drug sensitivity score (U2OS [11]): 0
drug sensitivity score (Vero E6 [12]): 0.9
